20 compounds from ChEMBL document CHEMBL3751705, “Synthesis and antituberculosis activity of indole-pyridine derived hydrazides, hydrazide-hydrazones, and thiosemicarbazones” (Bioorg Med Chem Lett, 2016) can be followed below.

By MIC is commonly meant the smallest concentration in the dilution series that meets the test's criterion for growth inhibition. Low readings indicate greater potency, high ones weaker potency.

In brackets after ≈: the same amount, converted by molar mass. Bounds are passed on as bounds.

The assay has as its system Mycobacterium tuberculosis. The assay can be described thus: Antituberculosis activity against isoniazid-resistant Mycobacterium tuberculosis CN-40 by microdilution method. Type of assay: functional.
In the case of `CCOC(=O)c1[nH]c2ccccc2c1CNNC(=O)c1cc[n+]([O-])cc1`, the MIC was found to be 10 mg/L (≈ 28.2 µM).

`CC(=O)n1cc(NNC(=O)c2ccc[n+]([O-])c2)c2ccccc21` displayed an MIC of 10 mg/L (≈ 32.2 µM). `Cc1ccc2[nH]c(C(=O)O)c(/C=N\NC(=O)c3ccncc3)c2c1` gave a minimum inhibitory concentration (MIC) of 4 mg/L (≈ 12.4 µM).

In the case of `CCOC(=O)c1[nH]c2ccccc2c1CNNC(=O)c1ccncc1`, the MIC amounted to 10 mg/L (≈ 29.6 µM). Under `CCOC(=O)c1[nH]c2ccc(C)cc2c1/C=N/NC(N)=S` stands 2 mg/L (≈ 6.57 µM); under `CCOC(=O)c1[nH]c2ccc(C)cc2c1/C=N\NC(=O)c1ccncc1`, 2 mg/L (≈ 5.71 µM); under `CCOC(=O)c1[nH]c2ccc(Cl)cc2c1CNNC(=O)c1ccncc1`, 10 mg/L (≈ 26.8 µM).

`O=C(N/N=C\c1c[nH]c2ccccc12)c1ccncc1` came in with an MIC of 10 mg/L (≈ 37.8 µM). Under `NNC(=O)c1ccc[n+]([O-])c1` stands more than 20 mg/L; under `CCOC(=O)c1[nH]c2ccccc2c1/C=N\NC(=O)c1cc[n+]([O-])cc1`, 10 mg/L (≈ 28.4 µM). Under `CCOC(=O)c1[nH]c2ccc(C)cc2c1CNNC(=O)c1ccncc1` stands 10 mg/L (≈ 28.4 µM); under `CCOC(=O)c1[nH]c2ccccc2c1/C=N\NC(=O)c1ccncc1`, 2 mg/L (≈ 5.95 µM). Under `NNC(=O)c1cc[n+]([O-])cc1` stands more than 20 mg/L; under `O=C(NNCc1c[nH]c2ccccc12)c1ccncc1`, 10 mg/L (≈ 37.6 µM); under `CCOC(=O)c1[nH]c2ccc(Cl)cc2c1/C=N\NC(=O)c1ccncc1`, 2 mg/L (≈ 5.39 µM).

`CC(=O)n1cc(NNC(=O)c2cc[n+]([O-])cc2)c2ccccc21`: the MIC is 10 mg/L (≈ 32.2 µM).

`O=C(N/N=C\c1c[nH]c2ccccc12)c1cc[n+]([O-])cc1` had an MIC of 10 mg/L (≈ 35.7 µM). Under `CC(=O)n1cc(NNC(=O)c2ccncc2)c2ccccc21` stands 2 mg/L (≈ 6.8 µM); under `NNC(=O)c1ccncc1` [ISONIAZID], 20 mg/L (≈ 146 µM); under `NNC(=O)c1cccnc1` [NICOTINIC ACID HYDRAZIDE], more than 20 mg/L.
